The text below walks through data of patent publication US7723329B2, “Substituted-3-sulfonylindazole derivatives as 5-hydroxytryptamine-6 ligands” (Wyeth LLC, priority 2005, dated 2010).

The target of data set [1] is T1, human cloned 5-HT6 receptors (Homo sapiens, UniProt P50406).
T1 construct: expressed in transfected cells; host or cells: HeLa cells
As to the kind of experiment: 5-HT6 binding affinity, [3H]-LSD displacement. The settings on record: membranes of Hela cells expressing human cloned 5-HT6 receptors; [3H]-LSD 3.0 nM; 120 minutes at room temperature.

Each structure is given as a SMILES string. pKi: −log10 of the molar value. Structures can show the parent of a compound that is named as a salt. Where only a bound is given, the exact number is not on record here.

T1 sequence (P50406 whole entry): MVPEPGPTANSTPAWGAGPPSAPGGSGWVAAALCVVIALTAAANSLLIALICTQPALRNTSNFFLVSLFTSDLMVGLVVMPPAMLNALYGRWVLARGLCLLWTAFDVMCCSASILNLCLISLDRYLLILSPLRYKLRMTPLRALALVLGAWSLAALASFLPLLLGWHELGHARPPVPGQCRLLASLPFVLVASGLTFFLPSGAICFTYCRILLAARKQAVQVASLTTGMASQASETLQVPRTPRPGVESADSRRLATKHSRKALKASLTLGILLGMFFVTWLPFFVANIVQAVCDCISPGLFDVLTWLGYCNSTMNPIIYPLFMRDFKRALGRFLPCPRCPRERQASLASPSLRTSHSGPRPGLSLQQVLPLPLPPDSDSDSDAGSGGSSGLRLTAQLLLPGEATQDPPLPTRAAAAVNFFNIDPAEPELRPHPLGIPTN

As for `CNCCc1ccc2[nH]nc(S(=O)(=O)c3ccccc3)c2c1` [Example 175, N-Methyl-N-{2-[3-(phenylsulfonyl)-1H-indazol-5-yl]ethyl}amine], the melting point lay within 186 to 188 °C. In data set [1], the pKi is 8.00 to 11.00.
For the compound `CC(C)NCCOc1ccc2c(c1)c(S(=O)(=O)c1cccc3ccccc13)nn2Cc1cccc(Cl)c1` (as salt: hydrochloride) [Example 57, {2-[1-(3-Chloro-benzyl)-3-(naphthalene-1-sulfonyl)-1H-indazol-5-yloxy]-ethyl}-isopropyl-amine], the melting point was 206 to 208 °C.
Same read-out and setting: under `CN(C)CCOCc1ccc2[nH]nc(S(=O)(=O)c3cccc4ccccc34)c2c1` (as salt: HCl) [Example 156, N,N-Dimethyl-2-{[3-(1-naphthylsulfonyl)-1H-indazol-5-yl]methoxy}ethanamine] stands above 200 °C.
Regarding `CCN(C)CCCc1ccc2[nH]nc(S(=O)(=O)c3cccc4ccccc34)c2c1` [Example 186], the melting point lay within 205 to 207 °C. Moreover, in data set [1], the pKi is 8.00 to 11.00.
`CN(C)CCc1cccc2c(S(=O)(=O)c3ccccc3)n[nH]c12` (as salt: hydrochloride) [Example 171, N,N-Dimethyl-N-{2-[3-(phenylsulfonyl)-1H-indazol-7-yl]ethyl}amine hydrochloride] returned a melting point of 76 to 80 °C.
Still for that read-out and setting: under `NCCNCc1ccc2[nH]nc(S(=O)(=O)c3cccc4ccccc34)c2c1` (as salt: hydrochloride) [Example 155, N{[3-(1-Naphthylsulfonyl)-1H-indazol-5yl]methyl}ethane-1.2-diamine] stands above 200 °C; under `N[C@@H]1CCN(Cc2ccc3[nH]nc(S(=O)(=O)c4cccc5ccccc45)c3c2)C1` (as salt: HCl) [Example 201], above 200 °C; under `O=S(=O)(c1ccccc1)c1n[nH]c2ccc(OCCNC3CC3)cc12` (as salt: hydrochloride) [Example 8, [2-(3-Benzenesulfonyl-1H-indazol-5-yloxy)-ethyl]-cyclopropyl-amine], 184 to 185 °C (dec.).
Same read-out and setting: under `O=S(=O)(c1ccccc1)c1n[nH]c2ccc(OCCNC3CCCC3)cc12` (as salt: hydrochloride) [Example 9, 3-Benzenesulfonyl-5-(2-cyclopentyl-1-yl-ethoxy)-1H-indazole] stands 255 to 258 °C (dec.).
`CN(C)CCN(C)Cc1ccc2[nH]nc(S(=O)(=O)c3cccc4ccccc34)c2c1` (as salt: hydrochloride) [Example 153, N,N, N′-Trimethyl-N′-{[3-(1-naphthylsulfonyl)-1H-indazol-5-yl]methyl}ethane-1,2-diamine] had a melting point above 200 °C.
Still for that read-out and setting: under `CN(C)CCc1ccc2[nH]nc(S(=O)(=O)c3ccccc3)c2c1` (as salt: hydrochloride) [Example 176, N,N-Dimethyl-N-{2-[3-(phenylsulfonyl)-1H-indazol-5-yl]ethyl}amine hydrochloride] stands 108 to 110 °C.
`O=S(=O)(c1cccc2ccccc12)c1n[nH]c2ccc(CCCN3CCCC3)cc12` [Example 187] gave a melting point of 135 to 138 °C. For the same compound, the negative-log Ki (pKi) in data set [1] is 8.00 to 11.00.
In the case of `O=C(c1ccc2[nH]nc(S(=O)(=O)c3cccc4ccccc34)c2c1)N1CCNCC1` (as salt: hydrochloride) [Example 202, 3-(1-Naphthylsulfonyl)-5-(piperazin-1 ylcarbonyl)-1H-indazole], the melting point was above 200 °C.
On the same count and under the same terms, under `CC(C)NCCOc1ccc2[nH]nc(S(=O)(=O)c3ccccc3)c2c1` (as salt: hydrochloride) [Example 6, [2-(3-Benzenesulfonyl-1H-indazol-5-yloxy)-ethyl]-isopropyl-amine] stands 275 to 277 °C (dec.).
Compound `Cl.NCCc1cccc2c(S(=O)(=O)c3ccccc3)n[nH]c12` [Example 174, {2-[3-(Phenylsulfonyl)-1H-indazol-7-yl]ethyl}amine Hydrochloride] returned a melting point of 157 to 160 °C. For the same compound, the pKi in data set [1] was 8.00 to 11.00.
Taken in the same sequence, the figures for `O=S(=O)(c1cccc2ccccc12)c1n[nH]c2ccc(CCCCN3CCCC3)cc12` [Example 194] were 238 to 240 °C and 7.60 to 7.96.
As for `CCNCCOc1ccc2[nH]nc(S(=O)(=O)c3ccccc3)c2c1` (as salt: hydrochloride) [Example 4, [2-(3-Benzenesulfonyl-1H-indazol-5-yloxy)-ethyl]-ethyl-amine], the melting point is 248 to 250 °C (dec.).
For the compound `CC1CN(Cc2ccc3[nH]nc(S(=O)(=O)c4cccc5ccccc45)c3c2)CCN1` (centres unmarked) (as salt: HCl) [Example 197], the melting point is above 200 °C.
Same read-out and setting: under `C[C@H]1CN(Cc2ccc3[nH]nc(S(=O)(=O)c4cccc5ccccc45)c3c2)CCN1` (as salt: HCl) [Example 199] stands 178 to 181 °C; under `NCCCCc1ccc2[nH]nc(S(=O)(=O)c3ccccc3)c2c1` (as salt: hydrochloride) [Example 181, {4-[3-(Phenylsulfonyl)-1H-indazol-5-yl]butyl}amine hydrochloride], 120 to 125 °C.
As for `CCN(C)CCCCc1ccc2[nH]nc(S(=O)(=O)c3cccc4ccccc34)c2c1` [Example 193], the melting point fell in the range of 195 to 198 °C. The pKi in data set [1] is 8.00 to 11.00.
For the compound `CNCCOc1ccc2c(c1)c(S(=O)(=O)c1cccc3ccccc13)nn2C` (as salt: hydrochloride) [Example 40, Methyl-{2-[1-methyl-3-(naphthalene-1-sulfonyl)-1H-indazol-5-yloxy]-ethyl}-amine], the melting point is 272 to 274 °C (dec.).
On the same count and under the same terms, under `NCCOc1ccc2[nH]nc(S(=O)(=O)c3ccccc3)c2c1` (as salt: hydrochloride) [Example 13, 2-(3-Benzenesulfonyl-1H-indazol-5-yloxy)-ethylamine] stands above 300 °C.
`CN(C)CCCCc1ccc2[nH]nc(S(=O)(=O)c3cccc4ccccc34)c2c1` [Example 190]: the melting point lay in the range of 232 to 233 °C. This compound showed a pKi in data set [1] of 8.00 to 11.00.
The compound `CN(C)CCCc1ccc2[nH]nc(S(=O)(=O)c3cccc4ccccc34)c2c1` (as salt: hydrochloride) [Example 182, N,N-Dimethyl-N-{3-[3-(naphthylsulfonyl)-1H-indazol-5-yl]propyl}amine hydrochloride] showed a melting point of 247 to 248 °C.
In the case of `CNCCCc1ccc2[nH]nc(S(=O)(=O)c3cccc4ccccc34)c2c1` [Example 183], the melting point was 155 to 160 °C. This compound also gave a pKi in data set [1] of 8.00 to 11.00.
Taken in the same sequence, the figures for `CC(C)NCCCCc1ccc2[nH]nc(S(=O)(=O)c3cccc4ccccc34)c2c1` [Example 192] were 145 to 150 °C and 8.00 to 11.00.
Turning to `CCCCNCCOc1ccc2[nH]nc(S(=O)(=O)c3ccccc3)c2c1` (as salt: hydrochloride) [Example 7, [2-(3-Benzenesulfonyl-1H-indazol-5-yloxy)-ethyl]-butyl-amine], the melting point was 271 to 273 °C (dec.).
The same measure, in the same setting: for `O=S(=O)(c1ccccc1)c1n[nH]c2c(CCNC3CC3)cccc12` (as salt: hydrochloride) [Example 172, N-{2-[3-(phenylsulfonyl)-1H-indazol-7-yl]ethyl}cyclopropanamine hydrochloride] the value was 115 to 117 °C.
`NCCCc1ccc2[nH]nc(S(=O)(=O)c3cccc4ccccc34)c2c1` [Example 188, {3-[3-(Naphthylylsulfonyl)-1H-indazol-5-yl]propyl}amine] came in with a melting point of 92 to 94 °C. Besides, the pKi in data set [1] was 8.00 to 11.00.
With `CN(C)CCCc1ccc2[nH]nc(S(=O)(=O)c3ccccc3)c2c1` (as salt: trifluoroacetate) [Example 177, N,N-Dimethyl-N-{3-[3-(phenylsulfonyl)-1H-indazol-5-yl]propyl}amine trifluoroacetate], the melting point is 75 to 80 °C.
The compound `O=S(=O)(c1cccc2ccccc12)c1n[nH]c2ccc(CN3CCNCC3)cc12` (as salt: hydrochloride) [Example 195, 3-(1-Naphthylsulfonyl)-5-(piperazin-1-ylmethyl)-1H-indazole] yielded a melting point above 200 °C.
Same read-out and setting: for `C[C@@H]1CN(Cc2ccc3[nH]nc(S(=O)(=O)c4cccc5ccccc45)c3c2)CCN1` (as salt: HCl) [Example 200] the value was 179 to 181 °C.
For the compound `CC(C)NCCCc1ccc2[nH]nc(S(=O)(=O)c3cccc4ccccc34)c2c1` [Example 185], the melting point is 160 to 163 °C. The same compound gave a pKi in data set [1] of 8.00 to 11.00.
On to `CCNCCCCc1ccc2[nH]nc(S(=O)(=O)c3cccc4ccccc34)c2c1` [Example 191], for which the melting point was in the range of 140 to 145 °C. Further, the pKi in data set [1] was 8.00 to 11.00.
Regarding `NCCCc1ccc2[nH]nc(S(=O)(=O)c3ccccc3)c2c1` (as salt: trifluoroacetate) [Example 180, {3-[3-(Phenylsulfonyl)-1H-indazol-5-yl]propyl}amine trifluoroacetate], the melting point fell in the range of 92 to 94 °C.
Still for that read-out and setting: for `CC(C)NCCOc1ccc2c(c1)c(S(=O)(=O)c1cccc3ccccc13)nn2C` (as salt: hydrochloride) [Example 45, Isopropyl-{2-[1-methyl-3-(naphthalene-1-sulfonyl)-1H-indazol-5-yloxy]-ethyl}-amine] the value was 274 to 276 °C (dec.).
In turn, `CC(c1ccc2[nH]nc(S(=O)(=O)c3cccc4ccccc34)c2c1)N1CCN(C)CC1` (centres unmarked) [Example 203, 5-[1-(4-Methylpiperazin-1-yl)ethyl]-3-(1-naphthylsulfonyl)-1H-indazole] yielded a melting point of 183 to 185 °C. In addition, the pKi in data set [1] is 8.00 to 11.00.
Consider `CC1CN(Cc2ccc3[nH]nc(S(=O)(=O)c4cccc5ccccc45)c3c2)CC(C)N1` (centres unmarked) (as salt: HCl) [Example 198], for which the melting point was above 200 °C.
On the same count and under the same terms, for `O=S(=O)(c1ccccc1)c1n[nH]c2ccc(OCCN3CCCCC3)cc12` (as salt: hydrochloride) [Example 3, 3-Benzenesulfonyl-5-(2-piperidin-1-yl-ethoxy)-1H-indazole] the value was 249 to 250 °C.

A word on the melting point: it is the temperature of the solid-liquid transition. A word on the pKi: it is the Ki on a negative log10 scale, so that one unit is a factor of ten. A lower pKi goes with a high Ki.
